US9198433B2, “Substituted benzene fungicides” (E I DU PONT DE NEMOURS AND COMPANY, priority 2007, dated 2015)
Marks after values point to notes of the source that are not given here.

Experiments:
Assay type in all cases: in vivo
Septoria tritici = experiment: Test D: wheat leaf blotch, preventive spray on wheat seedlings, disease rating
Summary of the method: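 Preventive test: one day after run-off spraying (200 ppm, equal to 500 g/ha, unless marked 40 or 50 ppm; acetone/water plus 250 ppm Trem 014), seedlings received S. tritici spore inoculum. Disease scored after 48 h at 24 °C in saturated air and 19 further days at 20 °C.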

[1] = system: Puccinia recondita f. sp. tritici; experiment: Test B: wheat leaf rust, preventive spray on wheat seedlings, disease rating
Summary of the method: (§1)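 Preventive spray to run-off on wheat seedlings; test suspension in acetone:water 50:50 plus 250 ppm surfactant, acetone predissolution at 3% of final volume. Dose 200 ppm (≈500 g/ha) by default, 40 ppm or 50 ppm where flagged.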

Botrytis cinerea = experiment: Test F: tomato Botrytis, preventive spray on tomato seedlings, disease rating; details: 200 ppm
Summary of the method: (§2)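 Disease ratings follow a preventive run-off spray of tomato seedlings. Compounds were first dissolved in acetone (3% of volume), then suspended in 50/50 acetone/water containing 250 ppm Trem 014. Test level 200 ppm (equivalent to 500 g/ha) except where marked * for 40 ppm or ** for 50 ppm.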

[2] = system: Erysiphe graminis f. sp. tritici; experiment: Test A: wheat powdery mildew, preventive spray on wheat seedlings, disease rating
Summary of the method: as §1

Alternaria solani = experiment: Test H: tomato early blight, preventive spray on tomato seedlings, disease rating
Summary of the method: as §2

Septoria nodorum = experiment: Test C: wheat glume blotch, preventive spray on wheat seedlings, disease rating
Summary of the method: as §1

[3] = 200 ppm, 100 = 100% disease control, 0 = no control relative to controls
[4] = 100 = 100% disease control, 0 = no control relative to controls
[5] = 40 ppm (*), 100 = 100% disease control, 0 = no control relative to controls

Compound | Percentage Disease Control, Test B ([1]; 200 ppm) [%] | Percentage Disease Control, Test F (Botrytis cinerea) [%] | Percentage Disease Control, Test H (Alternaria solani; 200 ppm) [%] | Percentage Disease Control, Test C (Septoria nodorum; 200 ppm) [%] | Percentage Disease Control, Test D (Septoria tritici; 40 ppm (*)) | Percentage Disease Control, Test B ([1]; 40 ppm (*)) | Percentage Disease Control, Test A ([2]; 40 ppm (*)) | Percentage Disease Control, Test C (Septoria nodorum; 40 ppm (*)) | also measured
COC(=O)NCc1cc(-c2ccn(-c3cccc(F)c3)n2)ccc1Cl [Cmpd 115] | 99 | 32 | 96 | 100 |  |  |  |  | Percentage Disease Control, Test D (Septoria tritici; 200 ppm): 100%; Percentage Disease Control, Test A ([2]; 200 ppm): 98%
COC(=O)NCc1cc(-c2ccn(-c3ccc(F)cc3)n2)ccc1Cl [Cmpd 116] | 100 | 0 | 99 | 100 |  |  |  |  | Percentage Disease Control, Test D (Septoria tritici; 200 ppm): 96%; Percentage Disease Control, Test A ([2]; 200 ppm): 99%
COC(=O)NCc1cc(-c2ccn(-c3ccc(Cl)c(Cl)c3)n2)ccc1Cl [Cmpd 117] | 99 | 94 | 95 | 100 |  |  |  |  | Percentage Disease Control, Test D (Septoria tritici; 200 ppm): 100%; Percentage Disease Control, Test A ([2]; 200 ppm): 98%
COC(=O)NCc1cc(-c2ccn(-c3ccc(F)c(F)c3)n2)ccc1Cl [Cmpd 118] | 100 | 40 | 99 | 100 |  |  |  |  | Percentage Disease Control, Test D (Septoria tritici; 200 ppm): 100%; Percentage Disease Control, Test A ([2]; 200 ppm): 100%
COC(=O)NCc1cc(-n2ccc(-c3cccc(C(F)(F)F)c3)n2)ccc1Cl [Cmpd 119] |  | 51 | 57 |  | 100* % | 100* % | 100* % | 100* % | 
COC(=O)NCc1cc(-n2cnc(-c3cccc(C(F)(F)F)c3)n2)ccc1Cl [Cmpd 120] | 79 | 0 | 0 | 0 | 94* % |  | 98* % |  | 
COC(=O)NCc1cc(-n2ccc(-c3cccc(Br)c3)n2)ccc1Cl [Cmpd 121] |  | 0 |  |  | 99* % | 98* % | 98* % | 100* % | Percentage Disease Control, Test H (Alternaria solani; 40 ppm (*)): 90* %
COC(=O)NCc1cc(-n2ccc(-c3ccc(Cl)cc3)n2)ccc1Cl [Cmpd 122] |  | 63 |  |  | 100* % | 100* % | 100* % | 100* % | Percentage Disease Control, Test H (Alternaria solani; 40 ppm (*)): 97* %
COC(=O)NCc1cc(-n2ccc(-c3cccc(Cl)c3)n2)ccc1Cl [Cmpd 123] |  | 63 | 87 |  | 99* % | 99* % | 98* % | 100* % | 
COC(=O)NCc1cc(-n2ccc(-c3ccc(Br)cc3)n2)ccc1Cl [Cmpd 124] |  | 0 |  |  | 100* % | 100* % | 100* % | 100* % | Percentage Disease Control, Test H (Alternaria solani; 40 ppm (*)): 99* %
COC(=O)NCc1cc(-c2cn[nH]c2)ccc1Cl [Cmpd 127] |  |  |  |  |  |  |  |  | Percentage Disease Control, Test D (Septoria tritici; [3]): 53%; Percentage Disease Control, Test B [1, 3]: 9%; Percentage Disease Control, Test F (Botrytis cinerea; [4]): 0%; Percentage Disease Control, Test A [2, 3]: 0%; Percentage Disease Control, Test H (Alternaria solani; [3]): 0%; Percentage Disease Control, Test C (Septoria nodorum; [3]): 0%
COC(=O)NCc1cc(-c2cnn(Cc3ccccc3)c2)ccc1Cl [Cmpd 128] |  |  |  |  |  |  |  |  | Percentage Disease Control, Test D (Septoria tritici; [5]): 96* %; Percentage Disease Control, Test B [1, 3]: 98%; Percentage Disease Control, Test F (Botrytis cinerea; [4]): 0%; Percentage Disease Control, Test A [2, 3]: 29%; Percentage Disease Control, Test H (Alternaria solani; [3]): 0%; Percentage Disease Control, Test C (Septoria nodorum; [3]): 82%
COC(=O)NCc1cc(-c2cnn(Cc3ccccc3Cl)c2)ccc1Cl [Cmpd 129] |  |  |  |  |  |  |  |  | Percentage Disease Control, Test D (Septoria tritici; [5]): 92* %; Percentage Disease Control, Test B [1, 3]: 98%; Percentage Disease Control, Test F (Botrytis cinerea; [4]): 0%; Percentage Disease Control, Test A [2, 3]: 94%; Percentage Disease Control, Test H (Alternaria solani; [3]): 0%; Percentage Disease Control, Test C (Septoria nodorum; [3]): 90%
COC(=O)NCc1cc(-c2ccnc(Cl)n2)ccc1Cl [Cmpd 130] |  |  |  |  |  |  |  |  | Percentage Disease Control, Test D (Septoria tritici; [3]): 96%; Percentage Disease Control, Test B [1, 3]: 67%; Percentage Disease Control, Test F (Botrytis cinerea; [4]): 0%; Percentage Disease Control, Test A [2, 3]: 80%; Percentage Disease Control, Test H (Alternaria solani; [3]): 0%; Percentage Disease Control, Test C (Septoria nodorum; [3]): 92%
